Test results taken from patent publication US20210038587A1, “METHODS AND COMPOSITIONS FOR TREATING NON-ERK MAPK PATHWAY INHIBITOR-RESISTANT CANCERS” (BIOMED VALLEY DISCOVERIES, INC., priority 2013, published 2021).

Legend:
Type in all cases: cell-based
[1] = tested on: A375, MIAPaCa-2, HCT116, Colo205, HT-29, and AN3Ca cells; assay: Reverse Phase Protein Analysis (RPPA), all six cell lines; settings: 10 μM, 6 hours
Protocol: (§1) Control wells were treated with DMSO at 0.1% (v/v) for 6 hours prior to cell lysate generation. Samples were then analyzed using reverse-phase protein microarray technology (Theranostics Health).
(§2) Cell lines with common alterations in BRAF and RAS were assayed: BRAF^V600E mutant lines A375, Colo205, and HT29; KRAS^G12C-mutant cell line MIAPACa-2; KRAS^G13D-mutant cell line HCT116; and AN3Ca with atypical HRAS^F82L mutation. Changes in protein levels are shown as a percentage change from dimethyl sulfoxide (DMSO)-treated parental control (FIG. 32A and Table 23).

MIAPaCa-2 = assay: Reverse Phase Protein Analysis (RPPA); settings: MIAPaca2; % change from DMSO (matched cell line)
HT29 = assay: Reverse Phase Protein Analysis (RPPA); settings: % change from DMSO (matched cell line)
Protocol: as §1, §2

SMILES: O=C(Nc1ccc2[nH]nc(-c3ccncc3)c2c1)[C@@H]1CCN(CC(=O)N2CCN(c3ccc(-c4ncccn4)cc3)CC2)C1 [SCH772984]
- pERK1/2 (ERK1/2-T202, -Y204) [1]: inhibited pERK1/2 in all cell lines
- Avg (4ebp1 T70) (MIAPaCa-2): 19.27%
- Avg (Akt S473) (MIAPaCa-2): 2.84%
- Avg (Akt) (MIAPaCa-2): 13.47%
- Avg (Bad S136) (MIAPaCa-2): 8.62%
- Avg (Bad S155) (MIAPaCa-2): −1.71%
- Avg (Bak) (MIAPaCa-2): −10.88%
- Avg (Bax) (MIAPaCa-2): 15.67%
- Avg (Bcl 2) (MIAPaCa-2): 4.96%
- Avg (Bcl2 S70) (MIAPaCa-2): −4.23%
- Avg (Bcl 2 T56) (MIAPaCa-2): −1.98%
- Avg (Bim) (MIAPaCa-2): 2.08%
- Avg (CREB S133) (MIAPaCa-2): −6.63%
- Avg (Caspase 3 CL D175) (MIAPaCa-2): 21.05%
- Avg (Caspase 7 Cl D198) (MIAPaCa-2): 8.35%
- Avg (Chk1) (MIAPaCa-2): 12.07%
- Avg (Chk1 S345) (MIAPaCa-2): 13.39%
- Avg (Cyclin D1) (MIAPaCa-2): −39.88%
- Avg (ERK 1 2) (MIAPaCa-2): −23.09%
- Avg (ERK 1 2 T202 Y204) (MIAPaCa-2): −76.71%
- Avg (MAK1 S360) (MIAPaCa-2): 2.74%
- Avg (Mcl1) (MIAPaCa-2): −1.88%
- Avg (Raptor S792) (MIAPaCa-2): 4.43%
- Avg (Raptor) (MIAPaCa-2): 17.66%
- Avg (Rictor) (MIAPaCa-2): −15.15%
- Avg (Stat1) (MIAPaCa-2): 7.17%
- Avg (Stat3) (MIAPaCa-2): −9.19%
- Avg (bad S112) (MIAPaCa-2): −33.07%
- Avg (c Fos) (MIAPaCa-2): −8.99%
- Avg (c Myc) (MIAPaCa-2): 2.11%
- Avg (mTOR S2448) (MIAPaCa-2): −11.48%
- Avg (mTOR S2481) (MIAPaCa-2): 2.43%
- Avg (mTOR) (MIAPaCa-2): 1.64%
- Avg (p70 S6 Kinase) (MIAPaCa-2): −7.51%
- Avg (p90 RSK S380) (MIAPaCa-2): −38.58%
- Avg(S6 Ribo Prot S235 236) (MIAPaCa-2): −77.57%
- Avg(S6 Ribo Prot S240 244) (MIAPaCa-2): −86.61%
- Avg(Tuberin TSC2 Y1571) (MIAPaCa-2): 8.86%
- Avg(p70 S6 Kinase S371 S394) (MIAPaCa-2): −40.47%
- Avg(p70 S6 Kinase T389 T412) (MIAPaCa-2): −50.97%
- Avg (4ebp1 T70) (HT29): −40.58%
- Avg (Akt S473) (HT29): −22.14%
- Avg (Akt) (HT29): −16.93%
- Avg (Bad S136) (HT29): 9.67%
- Avg (Bad S155) (HT29): −7.98%
- Avg (Bak) (HT29): 2.78%
- Avg (Bax) (HT29): −20.59%
- Avg (Bcl 2) (HT29): −10.01%
- Avg (Bcl2 S70) (HT29): −11.45%
- Avg (Bcl 2 T56) (HT29): −17.9%
- Avg (Bim) (HT29): 0.69%
- Avg (CREB S133) (HT29): 9.87%
- Avg (Caspase 3 CL D175) (HT29): −7.9%
- Avg (Caspase 7 Cl D198) (HT29): 7.02%
- Avg (Chk1) (HT29): 14.64%
- Avg (Chk1 S345) (HT29): 19.05%
- Avg (Cyclin D1) (HT29): −36.66%
- Avg (ERK 1 2) (HT29): −37%
- Avg (ERK 1 2 T202 Y204) (HT29): −74.84%
- Avg (MAK1 S360) (HT29): 1.25%
- Avg (Mcl1) (HT29): 14.05%
- Avg (Raptor S792) (HT29): −6.38%
- Avg (Raptor) (HT29): −12.18%
- Avg (Rictor) (HT29): −13.03%
- Avg (Stat1) (HT29): 5.79%
- Avg (Stat3) (HT29): −2.15%
- Avg (bad S112) (HT29): −33.9%
- Avg (c Fos) (HT29): −9.26%
- Avg (c Myc) (HT29): 13.55%
- Avg (mTOR S2448) (HT29): −22.65%
- Avg (mTOR S2481) (HT29): 13.93%
- Avg (mTOR) (HT29): 9.31%
- Avg (p70 S6 Kinase) (HT29): −2.36%
- Avg (p90 RSK S380) (HT29): −53.88%
- Avg(S6 Ribo Prot S235 236) (HT29): −44.9%
- Avg(S6 Ribo Prot S240 244) (HT29): −25.73%
- Avg(Tuberin TSC2 Y1571) (HT29): 13.25%
- Avg(p70 S6 Kinase S371 S394) (HT29): −20.52%
